Tests used:
[1] = target: T1, ΔF508 CFTR (Homo sapiens, UniProt P13569, DEL508-508); assay: Screening protocol: surface expression of 3HA-tagged ΔF508 CFTR in BHK cells (anti-HA immunofluorescence plate assay); assay type: cell-based; parameters: expressed in transfected cells; host or cells: BHK cells; details: for EC50: concentrations between 100 μM and 1 pM, FIG. 2
Protocol: BHK cells expressing 3HA-tagged ΔF508 CFTR between passages 5-8 were seeded in 96-well plates (Corning half area, black-sided, clear bottom) at 15,000 cells per well and incubated with culture medium for 24 h at 37° C. […] The remaining 16 wells on each plate were used for control conditions. Cells were fixed in a 2% Para-formaldehyde solution, washed with PBS, and blocked with PBS containing 5% fetal bovine serum (FBS) for 1 h at 4° C.
Blocking solution was replaced with 15 μl of primary antibody solution containing 1% FBS and mouse monoclonal anti-HA antibody (1:150 dilution, Sigma) in PBS. The plates were sealed and left at 4° C. overnight. After three washes with 100 μl PBS, cells were incubated for 1 h with 15 μl of secondary antibody solution containing 1% FBS and anti-mouse IgG conjugated with FITC (1:100 dilution, Sigma) in PBS. Cells were again washed three times with 100 μl of PBS and analyzed in a plate reader (Analyst™ HT96.384, Biosystems) (488 nm excitation, 510 nm emission). Hits were defined as those compounds giving fluorescence at least three standard deviations higher than untreated controls. The mean fluorescence of four untreated wells was used as the background signal when calculating deviations of the 80 compound-treated wells. Hits were then cherry-picked into reservoir plates and re-tested in duplicate using the same assay. Compounds that consistently give signals that were three standard deviations above untreated controls and were not intrinsically fluorescent were considered validated and studied further.

[2] = target: T2, F508del-CFTR (Homo sapiens, UniProt P13569, DEL508-508); assay: Immunofluorescence/confocal microscopy: cell surface CFTR (overlap with wheat germ agglutinin) in BHK cells expressing F508del-CFTR; assay type: cell-based; details: 10 μM, 24 hours, FIG. 3
T2 construct: expressed in transfected cells; host or cells: BHK cells
T2 sequence (P13569 with tags, fused parts or gaps DEL508-508): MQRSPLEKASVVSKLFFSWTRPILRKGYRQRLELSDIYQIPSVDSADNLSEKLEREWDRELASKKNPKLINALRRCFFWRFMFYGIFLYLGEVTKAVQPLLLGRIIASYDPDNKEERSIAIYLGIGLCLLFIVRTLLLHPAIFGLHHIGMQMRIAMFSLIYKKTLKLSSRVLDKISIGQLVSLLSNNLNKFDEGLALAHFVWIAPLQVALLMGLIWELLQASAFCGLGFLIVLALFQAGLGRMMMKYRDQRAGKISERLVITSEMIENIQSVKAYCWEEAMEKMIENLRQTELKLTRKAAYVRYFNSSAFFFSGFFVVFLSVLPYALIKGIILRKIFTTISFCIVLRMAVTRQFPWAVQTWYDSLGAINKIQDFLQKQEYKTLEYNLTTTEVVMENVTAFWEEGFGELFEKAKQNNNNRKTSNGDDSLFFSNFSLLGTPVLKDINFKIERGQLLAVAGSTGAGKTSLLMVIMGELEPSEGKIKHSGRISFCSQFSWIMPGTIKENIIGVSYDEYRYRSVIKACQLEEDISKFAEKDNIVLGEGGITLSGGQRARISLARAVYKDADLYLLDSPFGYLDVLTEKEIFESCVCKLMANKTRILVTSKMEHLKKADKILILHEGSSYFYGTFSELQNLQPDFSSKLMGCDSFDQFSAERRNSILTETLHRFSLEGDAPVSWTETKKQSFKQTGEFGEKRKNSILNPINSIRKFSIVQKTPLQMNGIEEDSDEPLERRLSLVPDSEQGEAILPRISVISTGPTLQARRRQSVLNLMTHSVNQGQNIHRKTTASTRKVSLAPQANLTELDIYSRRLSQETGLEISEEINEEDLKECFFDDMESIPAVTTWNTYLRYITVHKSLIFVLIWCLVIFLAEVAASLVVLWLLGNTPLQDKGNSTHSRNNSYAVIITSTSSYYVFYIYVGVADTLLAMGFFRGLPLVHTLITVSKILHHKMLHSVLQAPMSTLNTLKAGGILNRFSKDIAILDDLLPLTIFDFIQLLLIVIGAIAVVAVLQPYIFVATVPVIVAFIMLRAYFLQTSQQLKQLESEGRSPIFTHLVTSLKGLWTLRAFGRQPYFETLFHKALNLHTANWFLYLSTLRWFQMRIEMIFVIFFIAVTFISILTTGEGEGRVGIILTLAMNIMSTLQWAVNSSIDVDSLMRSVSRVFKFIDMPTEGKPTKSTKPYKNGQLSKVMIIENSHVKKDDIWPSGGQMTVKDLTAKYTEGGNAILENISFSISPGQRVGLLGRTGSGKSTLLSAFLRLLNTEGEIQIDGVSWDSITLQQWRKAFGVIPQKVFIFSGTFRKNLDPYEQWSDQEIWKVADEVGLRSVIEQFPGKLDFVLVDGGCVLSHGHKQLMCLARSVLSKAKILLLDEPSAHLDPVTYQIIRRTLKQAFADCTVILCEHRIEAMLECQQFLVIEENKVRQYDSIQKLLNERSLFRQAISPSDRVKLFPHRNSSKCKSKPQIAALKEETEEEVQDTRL
Protocol: BHK cells expressing F508del-CFTR were treated with 10 μM of the latonduines for 24 hours and then immunostained for CFTR and imaged by confocal microscopy (photomicrograph data not shown).
Cells were seeded onto 1 cm diameter glass coverslips (5000 per coverslip) and incubated overnight, then treated with compound and fixed in 2% Para formaldehyde. After fixation, cells were blocked using (5% FBS in PBS) for 1 hour at 4° C. The coverslips were then washed in PBS and incubated with primary antibody solution (1% FBS in PBS with 1:200 dilution mouse anti-CFTR antibody (Chemicon) for 2 hours at room temperature (0.05% Tween-20 was added to the blocking solution when staining of intracellular CFTR was required). Coverslips were washed four times in PBS and probed with secondary antibody solution (1% FBS in PBS plus goat anti-mouse Alexa 568 conjugated antibody at 1:1000 dilution) for 1 h at room temperature in the dark. The cells were then washed three times with PBS. The coverslips were then mounted on slides using an antifade mounting solution (Permamount) for confocal microscopy.
Analysis was done using the ImageJ system using 120-150 cells per sample in six fields. […]
The cell surface was identified using wheat germ agglutinin and the amount of cell surface CFTR measured (FIG. 3). […]

[3] = tested on: panel of human cancer lines; assay: Cytotoxicity assays against a panel of human cancer lines; assay type: cell-based
[4] = tested on: panel of protein kinases; assay: Enzyme inhibition against a panel of protein kinases; assay type: biochemical
[5] = target: T1, ΔF508 CFTR; assay: Immunoblotting analysis of biosynthetic processing of ΔF508-CFTR in BHK cells; assay type: cell-based; parameters: expressed in transfected cells; host or cells: BHK cells
Protocol: The effects of the latonduines on the biosynthetic processing of ΔF508-CFTR, latonduine treatment was assayed by immunoblotting analysis (FIGS. 4A and B).
Cell lysates were quantitated by Bradford assay (BioRad) and separated by SDS-PAGE (6% polyacrylamide gels) and analyzed by Western blotting. Western blots were blocked using 5% skimmed milk in PBS, then were probed overnight at 4° C. with a primary anti-CFTR antibody at a dilution of 1:1000 monoclonal mouse antibody (Chemicon). The blots were washed four times in PBS before the addition of the secondary HRP-conjugated anti-mouse antibody, at a dilution of 1:5000 (Amersham) for one hour at room temperature. The blots were washed five times in PBS and probed for chemiluminescence (Pierce). All samples were run with equal protein loading as determined using the Bradford assay (Biorad). Densitometry of the immunoblots were performed using the ImageJ program.

[6] = target: T1, ΔF508 CFTR; assay: Iodide efflux assay in CFBE cells expressing ΔF508-CFTR; assay type: cell-based; parameters: endogenous in cells; host or cells: CFBE cells (human lung epithelial cells from a CF patient); details: CFBE cells (human lung epithelia of a cystic fibrosis patient); FIG. 5B
Protocol: Experiments were performed by hand or with a robotic liquid handling system (BioRobot 8000, Qiagen, USA) using Qiagen 4.1 software. Cells were cultured in 24-well plates until they reached confluence in order to perform parallel experiments and comparison analysis. After treatment or not with a test compound, the medium of each well was replaced with 1 ml of iodide loading buffer (in mM: 136 NaI, 3 KNO3, 2 Ca(NO3)2, 11 glucose and 20 Hepes pH 7.4) for 1 hour at 37° C. to permit the I− to reach equilibrium. At the beginning of each experiment, the loading buffer was removed by aspiration and cells were washed eight times with efflux buffer (same as loading buffer except that NaI was replaced with 136 mM NaNO3) to remove extracellular I^− in each well. The loss of intracellular I^− was determined by removing the medium with efflux buffer every 1 min for up to 11 min. The first four aliquots were recovered at 1-minute intervals in an empty 24-well plate and used to establish a stable baseline in efflux buffer alone. […] The iodide concentration of each aliquot was determined using an iodide-sensitive electrode (Orion Research Inc., Boston, Mass., USA or Ecomet) and converted to iodide content (i.e. the amount of iodide released during the 1 min interval). […]

T1 sequence (P13569 with tags, fused parts or gaps DEL508-508): as above

Row | Structure (SMILES) | response in the screening protocol (surface expression of ΔF508 CFTR) ([1]; 24-hour treatment, 10 μM, FIGS. 1 and 6) | cell surface CFTR, % of the amount of wild-type CFTR plasma membrane signal [2] | cytotoxicity [3] | EC50 [1] | enzyme inhibition [4] | surface expression, % of that observed in cells expressing wild-type CFTR ([5]; F508del-CFTR, stated in Example III) | share of F508del-CFTR that was complex-glycosylated ([5]; cells treated with the compound, densitometry of immunoblot) | functional ΔF508-CFTR ion channels, iodide efflux [6]
1 | Nc1ncc2c(n1)-c1c([nH]c(Br)c1Br)C(=O)NC2 [isolatonduine] | positive response | – | – | – | – | – | – | –
2 | Nc1ncc2c(n1)CNC(=O)c1[nH]c(Br)c(Br)c1-2 [latonduine A] | – | 29% | inactive | 0.4 nM | inactive | about 25% | Up to 30% | –
3 | CCOC(=O)c1nc(N)nc2c1-c1c([nH]c(Br)c1Br)C(=O)NC2 [latonduine B ethyl ester] | – | 51% | inactive | 0.5 nM | inactive | – | – | can act as correctors of ΔF508-CFTR giving functional ion channels on the cell surface
4 | COC(=O)c1nc(N)nc2c1-c1c([nH]c(Br)c1Br)C(=O)NC2 [latonduine B methyl ester] | – | – | inactive | 25 nM | inactive | – | – | –
5 | Nc1nc2c(c(C(=O)O)n1)-c1c([nH]c(Br)c1Br)C(=O)NC2 [latonduine B] | – | – | inactive | – | inactive | – | – | –

— US20100280004A1, “SMALL MOLECULE CORRECTORS OF DELTAF508 CFTR TRAFFICKING” (The University of British Columbia and The Royal …, priority 2007, published 2010)
